Results on 2 compounds are retold here after US7465754B1, “Method of potentiating chemotherapy and treating solid tumors” (Wyeth, priority 1999, dated 2008).

The subject of assay [1] is human non small-cell lung carcinoma (NSCLC) line H-157. Kind of assay: H-157 NSCLC xenograft in nude mice, tumor growth. It is filed as in vivo. On the procedure: The potentiating effect of bioresponse modifiers on chemotherapeutic agents was evaluated in an in vivo standard pharmacological test procedure in which a human non small cell type lung cancer (NSCLC) cell line was engrafted onto the flanks of immunodeficient nude mice. The following briefly describes the test procedure used and results obtained. [R-(R*,R*)]-N-[(R)-6-Carboxy-N^2-[[2-carboxy-1-methyl-2-[(1-oxoheptyl)amino]ethoxy]carbonyl]-L-lysyl]-alanine was used as a representative bioresponse modifier and paclitaxcel was used a representative chemotherapeutic agent.
Balb-c nu/nu female mice were obtained from Charles River Laboratories at 6-8 weeks of age and used experimentally at 8-10 weeks of age. The human non small-cell lung carcinoma (NSCLC) line H-157 was obtained from the American tissue culture collection (ATCC) (Bethesda, Md.). Cells were grown in RPMI medium with 10% fetal bovine serum.
Mice were injected subcutaneously with 7.5×10^6H-157 NSCLC tumor cells. Tumors were allowed to develop until they reached a size of 80-150 mg. Tumor size was determined using vernier calipers to measure length (l) and width (w). The tumor volume was estimated using the formula l×w^2/2. The volume in mm^3 can be converted to milligrams directly assuming unit density. Seven days after injection, mice were randomized (day 0) into groups of 10 with a mean tumor mass of 100 mg. Treatment groups received paclitaxcel (30 mg/kg) on day 0 and either vehicle or [R-(R*,R*)]-N-[(R)-6-Carboxy-N^2-[[2-carboxy-1-methyl-2-[(1-oxoheptyl)amino]ethoxy]carbonyl]-L-lysyl]-alanine (100 μg/kg) on days 1 and 8.

Assay [2] relates to tumor cell growth in vitro. In words: Tumor cell growth in vitro / cell culture. Type of assay: cell-based.

On to `CC(=O)O[C@H]1C(=O)[C@@]2(C)[C@H]([C@H](OC(=O)c3ccccc3)[C@]3(O)C[C@H](OC(=O)[C@H](O)[C@@H](NC(=O)c4ccccc4)c4ccccc4)C(C)=C1C3(C)C)[C@]1(OC(C)=O)CO[C@@H]1C[C@@H]2O` [Paclitaxcel, paclitaxcel], for which the “% Suppression (Day 7)” value in assay [1] (Day 7, versus untreated control, paclitaxcel 30 mg/kg day 0, vehicle or CI 100 μg/kg days 1 and 8) is 30%. Besides, the “Tumor size (mg) Day 7” value in assay [1] (Day 7, paclitaxcel 30 mg/kg day 0, vehicle or CI 100 μg/kg days 1 and 8, mean ± standard deviation, 5 evaluations, 10 mice/group) is given as “^c289 ± 108 mg”. The “% Suppression (Day 14)” value in assay [1] (Day 14, versus untreated control, paclitaxcel 30 mg/kg day 0, vehicle or CI 100 μg/kg days 1 and 8) is 30%. The “Tumor size (mg) Day 14” value in assay [1] (Day 14, paclitaxcel 30 mg/kg day 0, vehicle or CI 100 μg/kg days 1 and 8, mean ± standard deviation, 5 evaluations, 10 mice/group) is 866 ± 348 mg. For the same compound, in assay [1] (day 7, Student's t test), the “tumor cell growth (in words)” value is “inhibited tumor cell growth”. Besides, the “tumor growth (in words)” value in assay [1] (day 14) was “not significantly suppressed versus control”.
Regarding `CCCCCCC(=O)N[C@@H](C(=O)O)[C@@H](C)OC(=O)N[C@@H](CCC[C@@H](N)C(=O)O)C(=O)NC(C)C(=O)O` (relative stereo) [CI, [R-(R*,R*)]-N-[(R)-6-carboxy-N^2-[[2-carboxy-1-methyl-2-[(1-oxoheptyl)amino]ethoxy]carbonyl]-L-lysyl]-alanine], the “potentiation of the growth inhibitory effect of paclitaxcel in cell culture” value in assay [2] (cell culture, with paclitaxcel) is on record as “nor does it potentiate the growth inhibitory effect of paclitaxcel in cell culture”. The “direct inhibition of tumor cell growth in vitro” value in assay [2] (in vitro) is “does not directly inhibit tumor cell growth in vitro”.
